{
  "source": "ChEMBL document CHEMBL1201862",
  "about": "“PubChem BioAssay data set” (2004)",
  "biological_target": "T1, Protein RecA (Mycobacterium tuberculosis, UniProt P9WHJ3)",
  "T1 sequence (P9WHJ3 whole entry)": "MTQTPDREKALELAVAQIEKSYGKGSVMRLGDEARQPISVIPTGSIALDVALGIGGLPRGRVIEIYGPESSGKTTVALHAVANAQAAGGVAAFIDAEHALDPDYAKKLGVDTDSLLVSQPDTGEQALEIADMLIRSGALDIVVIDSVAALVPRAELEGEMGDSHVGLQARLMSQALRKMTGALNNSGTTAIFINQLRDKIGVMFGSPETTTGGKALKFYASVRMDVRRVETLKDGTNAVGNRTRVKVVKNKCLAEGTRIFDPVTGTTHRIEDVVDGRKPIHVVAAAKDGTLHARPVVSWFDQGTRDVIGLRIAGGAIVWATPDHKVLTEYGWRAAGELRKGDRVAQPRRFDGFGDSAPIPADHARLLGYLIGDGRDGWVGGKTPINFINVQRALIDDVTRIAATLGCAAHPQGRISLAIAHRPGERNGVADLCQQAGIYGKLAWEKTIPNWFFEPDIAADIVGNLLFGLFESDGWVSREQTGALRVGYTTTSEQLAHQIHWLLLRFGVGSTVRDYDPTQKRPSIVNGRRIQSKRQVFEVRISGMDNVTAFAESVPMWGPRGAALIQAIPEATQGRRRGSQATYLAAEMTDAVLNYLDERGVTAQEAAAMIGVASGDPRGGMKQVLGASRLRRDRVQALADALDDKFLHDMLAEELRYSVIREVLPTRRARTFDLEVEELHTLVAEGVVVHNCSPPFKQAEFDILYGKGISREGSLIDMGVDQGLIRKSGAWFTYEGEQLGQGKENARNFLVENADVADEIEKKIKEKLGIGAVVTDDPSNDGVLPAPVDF",
  "test": "Fluorescence Cell-Free Homogeneous Dose Retest to Identify Inhibitors of RecA-Intein Splicing Activity. [Related pubchem assays (depositor defined):AID2097, AID2223, AID489010, AID492950]",
  "format": "functional",
  "note": "The source made the active and inactive calls. No stated cut-off is given here; in the data, actives have a measured EC50 and inactives only a lower limit.",
  "data": [
    {"smiles": "COc1cc(NC(=O)Cn2ncc(Cl)c(Cl)c2=O)c(C)cc1[N+](=O)[O-]", "values": [
      {"measurement": "EC50", "result": "8.7 µM (active)"}
    ]}
  ]
}
